Data as given in patent US11866430B2, “Naphthyridinone compounds useful as T cell activators” (priority 2018, dated 2024).
Like-named read-outs stand apart in the source and are kept apart here.

Key:
human DGKα [1] = molecular target: T1, human DGKα (Homo sapiens (Human), UniProt P23743); test: DGKα LIPGLO assay (extruded liposome substrate); assay type: biochemical
Description: The DGKα and DGKζ reactions were performed using either extruded liposome (DGKα and DGKζ LIPGLO assays) or detergent/lipid micelle substrate (DGKα and DGKζ assays). The reactions were carried out in 50 mM MOPS pH 7.5, 100 mM NaCl, 10 mM MgCl2, 1 μM CaCl2, and 1 mM DTT (assay buffer). The reactions using a detergent/lipid micelle substrate also contained 50 mM octyl B-D-glucopyranoside. […] The lipid substrate concentrations were […], 0.25 mM DAG, and 2.75 mM PC for the extruded liposome reactions.
(§1) The compound inhibition studies were carried out as follows: 50 nL droplets of each test compound (top concentration 10 mM with 11 point, 3-fold dilution series for each compound) solubilized in DMSO were transferred to wells of a white 1536 well plate (Corning 3725). A 5 mL enzyme/substrate solution at 2× final reaction concentration was prepared by combining 2.5 mL 4× enzyme solution (20 nM DGKα or DGKζ (prepared as described below) in assay buffer) and 2.5 mL of either 4× liposome or 4× detergent/lipid micelle solution (compositions described below) and incubated at room temperature for 10 minutes. Next, 1 μL 2× enzyme/substrate solution was added to wells containing the test compound and reactions were initiated with the addition of 1 μL 300 uM ATP. The reactions were allowed to proceed for 1 hr, after which 2 μL Glo Reagent (Promega V9101) was added and incubated for 40 minutes. Next, 4 μL Kinase Detection Reagent was added and incubated for 30 minutes. Luminescence was recorded using an EnVision microplate reader. […] The compounds were evaluated at 11 concentrations to determine IC50.
(§2) The PC, DAG, and PS were dissolved in chloroform, combined, and dried in vacuo to a thin film. The lipids were hydrated to 20 mM in 50 mM MOPS pH 7.5, 100 mM NaCl, 5 mM MgCl2, and were freeze-thawed five times. The lipid suspension was extruded through a 100 nm polycarbonate filter eleven times. […] The liposome preparation was stored at 4° C. for as long as four weeks.
Human DGK-alpha-TVMV-His-pFBgate and human DCK-zeta-transcript variant-2-TVMV-His-pFBgate baculovirus samples were generated using the Bac-to-Bac baculovirus expression system (Invitrogen) according to the manufacturer's protocol. The DNA used for expression of DGK-alpha and DGK-zeta have SEQ ID NOs: 1 and 3, respectively. Baculovirus amplification was achieved using infected Sf9 cells at 1:1500 virus/cell ratios, and grown for 65 hours at 27° C. post-transfection.
(§3) The expression scale up for each protein was carried out in the Cellbag 50 L WAVE-Bioreactor System 20/50 from GE Healthcare Bioscience. 12 L of 2×10^6 cells/mL Sf9 cells (Expression System, Davis, Calif.) grown in ESF921 insect medium (Expression System) were infected with virus stock at 1:200 virus/cell ratios, and grown for 66-68 hours at 27° C. post-infection. The infected cell culture was harvested by centrifugation at 2000 rpm for 20 min 4° C. in a SORVALL® RC12BP centrifuge. The cell pellets were stored at −70° C. until purification.
Full length human DGKα and DGKζ, each expressed containing a TVMV-cleavable C-terminal Hexa-His tag sequence (SEQ ID NOs: 2 and 4, respectively) and produced as described above, were purified from Sf) baculovirus-infected insect cell paste. The cells were lysed using nitrogen cavitation method with a nitrogen bomb (Parr Instruments), and the lysates were clarified by centrifugation. […] The three steps column chromatography included nickel affinity resin capture (i.e. HisTrap FF crude, GE Healthcare), followed by size exclusion chromatography (i.e. HiLoad 26/600 Superdex 200 prep grade, GE Healthcare for DGK-alpha, and HiPrep 26/600 Sephacryl S 300_HR, GE Healthcare for DGK-zeta). The third step was ion exchange chromatography, and differed for the two isoforms.

human DGKζ [2] = molecular target: T2, human DGKζ (Homo sapiens (Human), UniProt Q13574); test: DGKζ LIPGLO assay (extruded liposome substrate); assay type: biochemical; conditions: extruded liposome substrate; read-out: DGKζ LIPGLO IC50
Description: The DGKα and DGKζ reactions were performed using either extruded liposome (DGKα and DGKζ LIPGLO assays) or detergent/lipid micelle substrate (DGKα and DGKζ assays). The reactions were carried out in 50 mM MOPS pH 7.5, 100 mM NaCl, 10 mM MgCl2, 1 μM CaCl2, and 1 mM DTT (assay buffer). The reactions using a detergent/lipid micelle substrate also contained 50 mM octyl B-D-glucopyranoside.
as §1, with “A” for “The compound inhibition studies were carried out as follows: 50 nL droplets of each test compound (top concentration 10 mM with 11 point, 3-fold dilution series for each compound) solubilized in DMSO were transferred to wells of a white 1536 well plate (Corning 3725). A”
as §2
Baculovirus amplification was achieved using infected Sf9 cells at 1:1500 virus/cell ratios, and grown for 65 hours at 27° C. post-transfection.
as §3
The cells were lysed using nitrogen cavitation method with a nitrogen bomb (Parr Instruments), and the lysates were clarified by centrifugation. […] The three steps column chromatography included nickel affinity resin capture (i.e. HisTrap FF crude, GE Healthcare), followed by size exclusion chromatography (i.e. HiLoad 26/600 Superdex 200 prep grade, GE Healthcare for DGK-alpha, and HiPrep 26/600 Sephacryl S 300_HR, GE Healthcare for DGK-zeta). The third step was ion exchange chromatography, and differed for the two isoforms. DGKα was polished using Q-Sepharose anion exchange chromatography (GE Healthcare). DGKζ was polished using SP Sepharose cation exchange chromatography (GE Healthcare). The proteins were delivered at concentrations of ≥2 mg/mL. The formulation buffers were identical for both proteins: 50 mM Hepes, pH 7.2, 500 mM NaCl, 10% v/v glycerol, 1 mM TCEP, and 0.5 mM EDTA.

human DGKα [3] = molecular target: T1, human DGKα; test: biochemical; conditions: detergent/lipid micelle substrate; read-out: DGKα IC50
Outline: (§4)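 Full-length human DGKα or DGKζ (C-terminal His tag, Sf9-expressed; 20 nM 4× stock) was preincubated 10 min at room temperature with PS/DAG octyl glucoside micelles in MOPS pH 7.5 buffer with MgCl2, CaCl2 and DTT. It was then started with ATP (300 uM addition) and run for 1 hr, with ADP-Glo luminescence read-out.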

human DGKζ [4] = molecular target: T2, human DGKζ; test: DGKζ assay (detergent/lipid micelle substrate); assay type: biochemical; conditions: detergent/lipid micelle substrate; read-out: DGKζ IC50
Outline: as §4

[5] = system: pre-activated CD4 T cells and Raji cells; test: Raji CD4 T Cell IL2 Assay; assay type: cell-based

T2 sequence (Q13574 other isoform, or with tags, fused parts or gaps): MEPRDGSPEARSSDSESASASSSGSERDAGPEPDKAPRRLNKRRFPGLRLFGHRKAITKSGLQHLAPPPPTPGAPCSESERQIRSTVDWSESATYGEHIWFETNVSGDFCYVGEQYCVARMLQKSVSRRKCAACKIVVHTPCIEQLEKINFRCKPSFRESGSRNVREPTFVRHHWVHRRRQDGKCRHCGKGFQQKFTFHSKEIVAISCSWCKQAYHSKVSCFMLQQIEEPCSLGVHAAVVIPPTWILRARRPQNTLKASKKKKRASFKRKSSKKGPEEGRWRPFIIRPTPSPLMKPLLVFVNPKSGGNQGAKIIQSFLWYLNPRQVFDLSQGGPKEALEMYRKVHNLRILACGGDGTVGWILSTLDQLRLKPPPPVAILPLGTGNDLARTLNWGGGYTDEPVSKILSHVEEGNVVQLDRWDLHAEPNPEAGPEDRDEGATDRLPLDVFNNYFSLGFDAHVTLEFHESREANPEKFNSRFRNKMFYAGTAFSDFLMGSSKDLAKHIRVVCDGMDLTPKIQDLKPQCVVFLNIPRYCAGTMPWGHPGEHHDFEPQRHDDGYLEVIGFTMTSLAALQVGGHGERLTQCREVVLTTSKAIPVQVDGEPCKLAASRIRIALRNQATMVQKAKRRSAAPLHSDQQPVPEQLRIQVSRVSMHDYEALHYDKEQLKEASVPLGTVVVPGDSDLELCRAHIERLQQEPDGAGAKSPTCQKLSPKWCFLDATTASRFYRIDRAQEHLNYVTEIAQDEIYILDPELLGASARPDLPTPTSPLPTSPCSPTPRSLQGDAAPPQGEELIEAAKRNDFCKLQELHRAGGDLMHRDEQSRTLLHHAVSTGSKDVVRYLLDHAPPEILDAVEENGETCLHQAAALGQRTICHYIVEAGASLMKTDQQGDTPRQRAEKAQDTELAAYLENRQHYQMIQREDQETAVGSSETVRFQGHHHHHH
T1 sequence (P23743 other isoform, or with tags, fused parts or gaps): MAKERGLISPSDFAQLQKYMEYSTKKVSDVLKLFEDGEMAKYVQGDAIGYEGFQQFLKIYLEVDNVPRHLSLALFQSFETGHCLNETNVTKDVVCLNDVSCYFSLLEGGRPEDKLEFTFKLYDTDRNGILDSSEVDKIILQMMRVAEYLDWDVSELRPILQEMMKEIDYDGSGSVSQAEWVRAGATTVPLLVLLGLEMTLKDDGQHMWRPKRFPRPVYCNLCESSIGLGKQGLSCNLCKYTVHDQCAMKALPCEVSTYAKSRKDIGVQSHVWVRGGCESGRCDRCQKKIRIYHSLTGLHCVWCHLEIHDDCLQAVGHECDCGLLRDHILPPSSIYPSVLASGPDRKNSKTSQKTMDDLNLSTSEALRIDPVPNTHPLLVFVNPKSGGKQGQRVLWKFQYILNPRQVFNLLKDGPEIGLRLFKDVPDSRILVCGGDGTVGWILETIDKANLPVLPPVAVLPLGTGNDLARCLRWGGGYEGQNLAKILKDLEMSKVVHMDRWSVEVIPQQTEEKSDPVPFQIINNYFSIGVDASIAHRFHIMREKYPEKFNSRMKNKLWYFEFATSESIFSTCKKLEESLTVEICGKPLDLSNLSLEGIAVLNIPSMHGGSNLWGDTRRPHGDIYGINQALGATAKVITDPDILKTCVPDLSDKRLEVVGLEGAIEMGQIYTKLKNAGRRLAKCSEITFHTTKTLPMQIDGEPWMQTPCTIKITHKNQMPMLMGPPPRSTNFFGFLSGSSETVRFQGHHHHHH

## Cn1c(=O)c(C#N)c(N2CCN(Cc3ccc(Cl)c(O)c3)CC2)c2nc(C#N)ccc21 [Example 332, 8-{4-[(4-chloro-3-hydroxyphenyl)methyl]piperazin-1-yl}-5-methyl-6-oxo-5,6-dihydro-1,5-naphthyridine-2,7-dicarbonitrile]
Human DGKα [1]
  IC50: 2.5 µM
Human DGKζ [2]
  IC50: 6.5 µM
Human DGKα [3]
  IC50: 1.1 µM
Human DGKζ [4]
  IC50: 67 µM
[5]; Homo sapiens, Raji
  IC50: 0.53 µM

## CCC(c1ccc(F)cc1)N1CCN(c2c(C#N)c(=O)n(C)c3ccc(Br)nc23)CC1 (single isomer, unassigned) [Example 26, 6-bromo-4-{4-[1-(4-fluorophenyl)propyl]piperazin-1-yl}-1-methyl-2-oxo-1,2-dihydro-1,5-naphthyridine-3-carbonitrile]
Human DGKα [1]
  IC50: 6.7 µM
Human DGKζ [2]
  IC50: 18 µM
Human DGKα [3]
  IC50: 4.3 µM
Human DGKζ [4]
  IC50: 85 µM
[5]
  IC50: 0.14 µM

## Cn1c(=O)c(C#N)c(N2CCN(Cc3ccc(F)cc3O)CC2)c2nc(Cl)ccc21 [Example 193, 6-chloro-4-(4-(4-fluoro-2-hydroxybenzyl)piperazin-1-yl)-1-methyl-2-oxo-1,2-dihydro-1,5-naphthyridine-3-carbonitrile]
Human DGKα [1]
  IC50: 0.089 µM
Human DGKζ [2]
  IC50: 6.5 µM
Human DGKα [3]
  IC50: 0.22 µM
Human DGKζ [4]
  IC50: > 240 µM
[5]; Homo sapiens, Raji
  IC50: 0.13 µM

## Cn1c(=O)c(C#N)c(N2CCN(Cc3ccc(Cl)c(O)c3)CC2)c2nc(Cl)ccc21 [Example 323, 6-chloro-4-{4-[(4-chloro-3-hydroxyphenyl)methyl]piperazin-1-yl}-1-methyl-2-oxo-1,2-dihydro-1,5-naphthyridine-3-carbonitrile]
Human DGKα [1]
  IC50: 1.2 µM
Human DGKζ [2]
  IC50: 27 µM
Human DGKα [3]
  IC50: 0.14 µM
Human DGKζ [4]
  IC50: 11 µM
[5]; Homo sapiens, Raji
  IC50: 0.34 µM

## C#CCn1c(=O)c(C#N)c(N2CCN(Cc3ccc(C)cc3O)CC2)c2nc(Br)ccc21 [Example 66, 6-bromo-4-(4-(2-hydroxy-4-methylbenzyl)piperazin-1-yl)-2-oxo-1-(prop-2-yn-1-yl)-1,2-dihydro-1,5-naphthyridine-3-carbonitrile]
Human DGKα [1]
  IC50: 0.23 µM
Human DGKζ [2]
  IC50: 1.7 µM
Human DGKα [3]
  IC50: 0.084 µM
Human DGKζ [4]
  IC50: 13 µM
[5]; Homo sapiens, Raji
  IC50: 0.048 µM

## Cc1ccc2c(n1)c(N1CCN(C(c3ccc(F)cc3)c3ccc(F)cc3)CC1)c(C#N)c(=O)n2C [Example 226, 4-(4-(bis(4-fluorophenyl)methyl)piperazin-1-yl)-1,6-dimethyl-2-oxo-1,2-dihydro-1,5-naphthyridine-3-carbonitrile]
Human DGKα [1]
  IC50: 3.9 µM
Human DGKζ [2]
  IC50: 10 µM
Human DGKα [3]
  IC50: 1.6 µM
Human DGKζ [4]
  IC50: 70 µM
[5]; Homo sapiens, Raji
  IC50: 0.084 µM

## Cn1c(=O)c(C#N)c(N2CCN(Cc3ccc(Br)cc3O)CC2)c2nc(C#N)ccc21 [Example 263, 8-{4-[(4-bromo-2-hydroxyphenyl)methyl]piperazin-1-yl}-5-methyl-6-oxo-5,6-dihydro-1,5-naphthyridine-2,7-dicarbonitrile]
Human DGKα [1]
  IC50: 0.22 µM
Human DGKζ [2]
  IC50: 5.2 µM
Human DGKα [3]
  IC50: 0.084 µM
Human DGKζ [4]
  IC50: 14 µM
[5]; Homo sapiens, Raji
  IC50: 0.035 µM

## CC(c1ccc(F)cc1)N1CCN(c2c([N+](=O)[O-])c(=O)n(CC#N)c3ccc(C#N)nc23)CC1 (stereo not drawn) [Example 151, 5-(cyanomethyl)-8-(4-(1-(4-fluorophenyl)ethyl)piperazin-1-yl)-7-nitro-6-oxo-5,6-dihydro-1,5-naphthyridine-2-carbonitrile]
Human DGKα [1]
  IC50: 7.3 µM
Human DGKζ [2]
  IC50: 3.1 µM
Human DGKα [3]
  IC50: 38 µM
Human DGKζ [4]
  IC50: 27 µM
[5]; Homo sapiens, Raji
  IC50: 0.88 µM

## Cn1c(=O)c(C#N)c(N2CCN(Cc3cccc4c3NCC4)CC2)c2nc(Cl)ccc21 [Example 216, 6-chloro-4-(4-(indolin-7-ylmethyl)piperazin-1-yl)-1-methyl-2-oxo-1,2-dihydro-1,5-naphthyridine-3-carbonitrile]
Human DGKα [1]
  IC50: 1.2 µM
Human DGKζ [2]
  IC50: 4.8 µM
Human DGKα [3]
  IC50: 1.4 µM
Human DGKζ [4]
  IC50: 54 µM
[5]; Homo sapiens, Raji
  IC50: 0.064 µM

## Cn1c(=O)c(C#N)c(N2CCN(Cc3cc(Br)ccc3O)CC2)c2nc(Cl)ccc21 [Example 275, 4-{4-[(5-bromo-2-hydroxyphenyl)methyl]piperazin-1-yl}-6-chloro-1-methyl-2-oxo-1,2-dihydro-1,5-naphthyridine-3-carbonitrile]
Human DGKα [1]
  IC50: 0.77 µM
Human DGKζ [2]
  IC50: 10 µM
Human DGKα [3]
  IC50: 0.3 µM
Human DGKζ [4]
  IC50: 58 µM
[5]; Homo sapiens, Raji
  IC50: 0.073 µM

## Cc1ccc2c(n1)c(N1CCN(C(c3ccc(F)cc3)c3ccc(F)cc3)CC1)c(Br)c(=O)n2C [Example 239, 4-(4-(bis(4-fluorophenyl)methyl)piperazin-1-yl)-3-bromo-1,6-dimethyl-1,5-naphthyridin-2(1H)-one]
Human DGKα [1]
  IC50: 9.9 µM
Human DGKζ [2]
  IC50: 51 µM
Human DGKα [3]
  IC50: 11 µM
Human DGKζ [4]
  IC50: > 240 µM
[5]; Homo sapiens, Raji
  IC50: 3.6 µM

## Cn1c(=O)c(C#N)c(N2CCN(Cc3ccc(F)cc3)CC2)c2nc(Cl)ccc21 [Example 308, 6-chloro-4-{4-[(4-fluorophenyl)methyl]piperazin-1-yl}-1-methyl-2-oxo-1,2-dihydro-1,5-naphthyridine-3-carbonitrile]
Human DGKα [1]
  IC50: 0.95 µM
Human DGKζ [2]
  IC50: 13 µM
Human DGKα [3]
  IC50: 0.19 µM
[5]; Homo sapiens, Raji
  IC50: 0.21 µM

## Cn1c(=O)c([N+](=O)[O-])c(N2CCN(C(C)(C)c3ccc(F)cc3)CC2)c2nc(C#N)ccc21 [Example 260, 8-{4-[2-(4-fluorophenyl)propan-2-yl]piperazin-1-yl}-5-methyl-7-nitro-6-oxo-5,6-dihydro-1,5-naphthyridine-2-carbonitrile]
Human DGKα [1]
  IC50: 1.6 µM
Human DGKζ [2]
  IC50: 5.3 µM
Human DGKα [3]
  IC50: 0.35 µM
[5]; Homo sapiens, Raji
  IC50: 0.018 µM
